{"source": "patent US20050020542A1", "about": "“Method of modulating sodium ion absorption in epithelial cells” (priority 2001, published 2005)", "key": {"[1]": {"test_system": "calcium-activated Cl- channel", "experiment": "Perforated patch whole cell recording of Cl- current", "assay_type": "cell-based, human", "procedure": "In FIGS. 4A and 4B, the response to 10 μM INO-E2 is contrasted with the response to ATP."}, "human CF nasal epithelia": {"test_system": "human CF nasal epithelia", "experiment": "Blue Dextran volume transport assay (fluid absorption)", "assay_type": "cell-based", "description": "In normal human airway epithelia, Na^+ and Cl^− currents (CFTR and Ca^2+-activated Cl^− currents) contribute to airway surface liquid (ASL) fluid volume regulation depending on signaling equilibria. In contrast, in human CF airway epithelia, Na^+ currents through ENaC dominate basal ASL volume regulation accompanied by a relatively minor contribution through Ca^2+-activated Cl^− currents. The combination of enhanced ENaC currents and transient Ca^2+-activated Cl^− currents in CF result in an inadequate hydration of the ASL and reduction of mucociliary clearance. Since INO-E2 reduces Na^+ transport through ENaC, we hypothesized that INO-E2 would have a functional effect, similar to amiloride, and inhibit fluid absorption. To test this hypothesis, we exposed well differentiated monolayer cultures of CF nasal epithelia to an apically applied buffer containing INO-E2 and a known concentration of the non-permeable molecule Blue Dextran (BD). The resulting reduction in the ability of these monolayers to concentrate BD was taken as a functional indicator of INO-E2's involvement in the inhibition of ENaC.\nHEPES Modified Ringer's Buffer (HMRB) was used for these assays. HMRB was sterilized by positive pressure filtration through a 0.2 um syringe tip filter (Gelman acrodisc). The BD stock solution was aseptically prepared with sterile buffer (2 mg BD/ml buffer). Compounds to be tested were solubilized in sterile HMRB containing 1 μM BD (final concentration of vehicle is 0.1% (1:1, DMSO+DMSO containing 5% pluronic-F127). […] A standard concentration curve was obtained by determining the optical densities of a serial dilution of 10 μM Blue Dextran in HMRB placed in a Falcon 3027 96-well plate. The optical density of BD in the solution was obtained by analysis at 660 nm in a Packard Spectracount. Standards and samples were analyzed on the same plate. 50 μl volumes were used for all samples and standards. The [BD] of the samples was determined by extrapolation from the standard curve using the Packard I-Smart software. The increase in [BD] from the starting value of 1 μM was taken to be an indication of the magnitude of volume absorption occurring across the monolayer. The rate of absorption was calculated by dividing the change in volume by the duration of the experiment. This value was normalized to a surface area of 1 cm^2, to give μl·cm^2−1·hr^−1. To address evaporative loss, which would appear in the data as artificially high absorptive rates, dummy membranes were constructed by attaching a thin Sylgard sheet to snapwells/transwells with silicon sealant. These dummy membranes were used in parallel with the epithelial monolayers to assess evaporative loss for each experiment."}, "[2]": {"test_system": "Ca2+ activated Cl- secretion", "experiment": "ATP-stimulated Cl- secretion after amiloride in Ussing chambers", "assay_type": "cell-based, human", "conditions": "repeated exposure 1-2.5 μM over 96 hours, then amiloride, then apical ATP", "procedure": "FIG. 3 is a graph showing the effect of repeated exposure to INO-E2 on physiological parameters in CFHNE. 2.5 μM INO-E2 was added every 24 hrs for 4 days. Effects on Isc in CFHNE, passage 2 are depicted. Every 24 hrs medium in the basolateral compartment was exchanged with fresh medium containing 2.5 μM INO-E2. On the 4th day the monolayers were mounted in Ussing chambers and basal Isc, conductance and resistance measured. After a stable baseline was reached, amiloride was added to determine the amiloride-inhibitable-Isc. Under these conditions, subsequent apical addition of the Ca^2+-mobilizing agent, ATP, allows Cl^− secretion to be examined in isolation.\nThe therapeutic potential of INO-E2 was investigated by using protocols that model in vivo treatments. In this experiment the effects of repeated exposure to a low dose of INO-E2 (2.5 μM) on basal Isc and responsiveness to calcium-mobilizing agonists (ATP) in human nasal CF epithelia (CFHNE) was tested. […] T here was no apparent difference in responses to compound added to the apical or basolateral compartment. This series of experiments provides information that useful for deriving the optimal therapeutic dose and delivery schedule for in vivo tests."}}, "note": "“Also recorded” adds a separate entry of the source.", "data": [{"smiles": "CCCCCCCCOC1C(OC(=O)CCC)C(OP(=O)(OCOC(=O)CC)OCOC(=O)CC)C(OP(=O)(OCOC(=O)CC)OCOC(=O)CC)C(OP(=O)(OCOC(=O)CC)OCOC(=O)CC)C1OP(=O)(OCOC(=O)CC)OCOC(=O)CC", "note": "(stereo not shown) [INO-E2, 2-O-butyryl-1-O-octyl-myo-inositol 3,4,5,6-tetrakisphosphate octakis (propionoxymethyl) ester]", "values": [{"measurement": "time to appearance of Cl- currents after addition", "setting": "[1]; 10 μM, CFHNE cell, perforated patch", "result": "5 to 15", "unit": "min"}, {"measurement": "increase in chloride current", "setting": "[1]; 5 and 10 μM, other perforated patch recordings, data not shown", "result": "low to intermediate increase"}, {"measurement": "change of potency on fluid absorption with repeat administration", "setting": "human CF nasal epithelia; 2 hours each day for 8 days at 0.1 μM or 1 μM, n=6", "result": "enhancement of compound potency"}, {"measurement": "potency compared with amiloride in fluid secretion assay", "setting": "human CF nasal epithelia; comparison 100 μM amiloride", "result": "as potent as amiloride"}, {"measurement": "duration of effects compared with amiloride", "setting": "human CF nasal epithelia; conditions that model therapeutic exposure times", "result": "longer-lasting"}, {"measurement": "duration of effect on fluid secretion following a brief (pulsed) exposure", "setting": "human CF nasal epithelia; pulsed exposure, FIG. 17", "result": "prolonged effects"}, {"measurement": "response to ATP (Ca2+ activated Cl- secretion) in treated monolayers", "setting": "[2]", "result": "augments subsequent stimulation of Ca^2+ activated Cl^− secretion; also recorded: elevated"}]}]}
